# Experimental data: patent US10159678B2, “Methods to decrease susceptibility to asthmatic bronchoconstriction” (Cornell University, priority 2012, dated 2018)
# Legend:
# [1] = biological target: T1, SPT (Mus musculus, UniProt O35704+P97363); assay: Incorporation of 3H-serine / 3H-sphingosine in lung homogenates after intranasal myriocin; format: in vivo, mice
# T1 construct: from tissue
# T1 sequence (P97363 1-560): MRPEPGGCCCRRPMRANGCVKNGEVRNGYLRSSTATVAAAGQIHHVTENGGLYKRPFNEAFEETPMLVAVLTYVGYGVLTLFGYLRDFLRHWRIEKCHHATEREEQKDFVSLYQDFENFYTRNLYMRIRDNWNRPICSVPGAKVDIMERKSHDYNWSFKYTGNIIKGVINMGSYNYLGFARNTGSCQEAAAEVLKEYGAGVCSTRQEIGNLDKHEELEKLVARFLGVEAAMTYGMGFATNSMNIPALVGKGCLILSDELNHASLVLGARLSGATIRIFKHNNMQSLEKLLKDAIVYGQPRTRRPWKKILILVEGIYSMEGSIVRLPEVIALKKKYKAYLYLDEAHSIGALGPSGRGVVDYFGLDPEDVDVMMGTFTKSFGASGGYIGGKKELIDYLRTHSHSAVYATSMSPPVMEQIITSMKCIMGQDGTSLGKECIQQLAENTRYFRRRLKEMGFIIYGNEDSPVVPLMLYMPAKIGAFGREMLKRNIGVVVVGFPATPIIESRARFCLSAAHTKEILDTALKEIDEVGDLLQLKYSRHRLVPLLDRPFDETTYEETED
# T1 sequence (O35704 1-473): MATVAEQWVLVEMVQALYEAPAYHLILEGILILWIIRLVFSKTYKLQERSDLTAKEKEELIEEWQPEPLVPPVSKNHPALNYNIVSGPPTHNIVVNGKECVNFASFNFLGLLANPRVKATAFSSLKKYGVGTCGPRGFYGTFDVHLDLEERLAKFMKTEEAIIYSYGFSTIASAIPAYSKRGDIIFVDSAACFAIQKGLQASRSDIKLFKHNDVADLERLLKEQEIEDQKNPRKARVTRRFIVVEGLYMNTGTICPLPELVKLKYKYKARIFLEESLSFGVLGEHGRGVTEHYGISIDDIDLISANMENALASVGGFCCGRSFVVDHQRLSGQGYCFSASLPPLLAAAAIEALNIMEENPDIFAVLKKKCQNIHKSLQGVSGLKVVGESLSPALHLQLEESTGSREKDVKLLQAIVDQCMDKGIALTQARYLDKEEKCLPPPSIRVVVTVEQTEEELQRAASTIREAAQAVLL
# T1 sequence (Q8R207 1-71 partner): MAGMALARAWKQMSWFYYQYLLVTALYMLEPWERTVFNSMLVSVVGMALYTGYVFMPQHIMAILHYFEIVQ
# Description: Lungs were harvested following perfusion with phosphate-buffered saline (PBS, Invitrogen, Carlsbad, Calif.) containing 0.6 mM ethylenediamine tetra acetic acid dipotassium salt dehydrate (EDTA, Invitrogen) via the right ventricle to remove blood cells from the pulmonary circulation. The lungs were then homogenized in normal PBS. De-novo sphingolipid synthesis was assessed by evaluating incorporation of ^3H-serine (24.1 Ci/mmol, Perkin Elmer (Boston, Mass.) into ceramide and sphingosine. Sphingolipid synthesis through the recycling pathway was assessed by evaluating incorporation of ^3H-sphingosine (18.2 Ci/mmol, Perkin Elmer (Boston, Mass.) into ceramide and sphingomyelin. In both assays, equal amounts of fresh lung homogenates were incubated for 30 min at 37° C. with 2 μl of the radioactive tracer, followed by lyophilization to determine dry weight, lipid extraction with chloroform/methanol/water (1:1:0.9). The organic phase was evaporated, dissolved in 50 μl chloroform/methanol (1:1) spotted on […] chromatography plates (TLC) (Merck Silica gel 60, Darmstadt, Germany) and chromatographed for 25 min with chloroform-methanol-ammonium hydroxide (65:25:4 v/v). […] The TLC plate was cut at the corresponding lipid spot, mixed with scintillation fluid (Ultima Gold, Packard Instrument Company, CT) and analyzed in a scintillation counter (Perkin Elmer Wallac, Gaithersburg, Md.). […]
# [2] = system: lung sphingolipid composition; assay: Lung sphingolipid composition by UPLC-MS/MS after intranasal myriocin; format: in vivo, BALB/c mice
# Description: Animal studies described herein were conducted under protocols approved by the Institutional Animal Care and Use Committee of Weill Cornell Medical College. Female BALB/c mice, obtained from Taconic Farms (Tarrytown, N.Y.). Animals were housed under specific pathogen-free conditions and used at 6 to 8 weeks of age. Myriocin (Enzo Life Sciences, Plymouth Meeting, Pa.) was freshly prepared from a 10 mM stock solution to a 1 mM or 100 μM solution in 0.9% saline and 0.05% fatty acid free bovine serum albumin and 50 μl were administered intranasally. Control animals received the vehicle solution (1% DMSO in 0.9% saline, […] BSA) or were naïve. Three hours later the animals underwent pulmonary function testing and were sacrificed. Heterozygous SPT-deficient mice (Sptlc2^+/−) or homozygous controls (Sptlc2^+/+) were bred, identified by genotyping using procedures like those described by Hojjati et al. (2005) and used at 6-8 weeks of age.
# Lungs were harvested following perfusion with phosphate-buffered saline (PBS, Invitrogen, Carlsbad, Calif.) containing 0.6 mM ethylenediamine tetra acetic acid dipotassium salt dehydrate (EDTA, Invitrogen) via the right ventricle to remove blood cells from the pulmonary circulation. The lungs were then homogenized in normal PBS. De-novo sphingolipid synthesis was assessed by evaluating incorporation of ^3H-serine (24.1 Ci/mmol, Perkin Elmer (Boston, Mass.) into ceramide and sphingosine. Sphingolipid synthesis through the recycling pathway was assessed by evaluating incorporation of ^3H-sphingosine (18.2 Ci/mmol, Perkin Elmer (Boston, Mass.) into ceramide and sphingomyelin. In both assays, equal amounts of fresh lung homogenates were incubated for 30 min at 37° C. with 2 μl of the radioactive tracer, followed by lyophilization to determine dry weight, lipid extraction with chloroform/methanol/water (1:1:0.9). The organic phase was evaporated, dissolved in 50 μl chloroform/methanol (1:1) spotted on […] chromatography plates (TLC) (Merck Silica gel 60, Darmstadt, Germany) and chromatographed for 25 min with chloroform-methanol-ammonium hydroxide (65:25:4 v/v). Ceramides, sphingomyelin, phosphatidylserine, sphinganine and sphingosine, all dissolved at 1 μg/μl were run as standards. The lipids were identified according to their Rf values after visualization in an iodine vapor tank. The TLC plate was cut at the corresponding lipid spot, mixed with scintillation fluid (Ultima Gold, Packard Instrument Company, CT) and analyzed in a scintillation counter (Perkin Elmer Wallac, Gaithersburg, Md.). Results are calculated as dpm/mg protein.
# Sphinganine, sphingosine, sphinganine-1-phosphate, sphingosine-1-phosphate, ceramides (Cer16, Cer18, Cer20, Cer22, Cer24:1, Cer24) were quantified in lung homogenates by ultra-performance liquid chromatography-tandem mass spectrometry (UPLC-MS/MS), on a Waters Xevo, equipped with a Waters BEH Phenyl UPLC Column (ACQUITY UPLC BEH Phenyl Column, 3.0×100 mm, 1.7 μm and a ACQUITY BEH Phenyl VanGuard Pre-column, 2.1×5 mm, 1.7 μm in the Columbia University Lipid Core as reported by Shaner et al. (2009) with minor modifications. […] of an internal standard mix (Avanti Polar Lipids, Mix 1) in ethanol, 0.5 ml methanol and 0.25 ml chloroform were added to the lyophilized lung homogenates and sonicated for 12 h at 48° C. After centrifugation at 10,000 g for 5 min, the supernatant was evaporated in a glass tube and resuspended in 100 μl methanol. 10 μl were injected into the UPLC-MS/MS. Results are calculated as pmol/mg.
# Myriocin is a potent and specific inhibitor of SPT that affects SPT independent of orm. To assess if direct administration of myriocin to the respiratory tract affects pulmonary sphingolipid synthesis, the lung sphingolipid composition was determined by ultra-performance liquid chromatography-tandem mass spectrometry (UPLC-MS/MS) 3 h following intranasal administration of myriocin.
structure (smiles),measurement,setting,value
CCCCCCC(=O)CCCCCC/C=C/C[C@@H](O)[C@H](O)[C@@](N)(CO)C(=O)O [myriocin],SPT-dependent synthesis of sphinganine from 3H-serine,[1]; 3 hours following intranasal administration of myriocin,significantly decreased
same,Non-SPT-dependent syntheses of ceramides or sphingomyelins from 3H-sphingosine,"[1]; after myriocin administration, data not shown",not affected
same,sphinganine in the lung,"[2]; 3 h following intranasal administration of myriocin (20 μg), FIG. 1A",reduced
same,sphingosine levels in the lung,"[2]; 3 h following intranasal myriocin (20 μg), FIG. 1B",not significantly decreased
same,sphinganine-1P (Sa1P) levels in the lung,"[2]; 3 h following intranasal myriocin (20 μg), FIG. 1C",not significantly decreased
same,sphingosine-1P (S1P) levels in the lung,"[2]; 3 h following intranasal myriocin (20 μg), FIG. 1D",not significantly decreased
same,"sum of ceramides (C14, C16, C18, C20, C22, C24, C24:1) in the lung","[2]; 3 h following intranasal myriocin (20 μg), FIG. 1E-1G",decreased
same,certain individual ceramides in the lung,"[2]; 3 h following intranasal myriocin, FIGS. 1F and 1G",individually decreased
